According to patent US9857359B2, “Methods for determining drug efficacy using cereblon-associated proteins” (CELGENE CORPORATION, priority 2012, dated 2018):

Experiments:
human tumor xenograft = experiment: Human tumor xenograft model (DLBCL); type: in vivo
Aiolos [1] = experiment: Aiolos in siCRBN transfected primary CD3+ T cells; type: cell-based, human; details: siCRBN vs siControl, 6/24 hours
From the text: Primary T cells were isolated from human leukocytes (Blood Center of New Jersey, East Orange, N.J.) by centrifugation through FICOLL® centrifugation medium following the ROSETETTESEP™ protocol (Stem Cell Technologies, Vancouver, Canada).

Pegasus = target: T1, Pegasus (Homo sapiens, UniProt Q9H5V7); experiment: SimpleWestern of normal human CD19+ B cells, Pegasus; type: cell-based; details: various concentrations
T1 construct: endogenous in cells; host or cells: normal human CD19+ B cells
T1 sequence (Q9H5V7 1-419): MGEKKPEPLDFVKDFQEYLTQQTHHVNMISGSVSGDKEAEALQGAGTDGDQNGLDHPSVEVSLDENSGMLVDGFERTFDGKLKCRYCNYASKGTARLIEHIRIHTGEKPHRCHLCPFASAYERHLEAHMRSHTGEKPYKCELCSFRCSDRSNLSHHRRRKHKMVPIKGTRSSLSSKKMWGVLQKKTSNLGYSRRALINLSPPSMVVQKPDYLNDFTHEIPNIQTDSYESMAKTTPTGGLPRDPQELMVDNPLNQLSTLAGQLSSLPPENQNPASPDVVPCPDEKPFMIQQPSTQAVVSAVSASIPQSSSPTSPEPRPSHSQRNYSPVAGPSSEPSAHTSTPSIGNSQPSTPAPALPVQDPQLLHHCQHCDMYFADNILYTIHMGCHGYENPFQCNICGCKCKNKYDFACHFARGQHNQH
Experimental: (§1) Human B cells were isolated from 3 donors of whole bloods from the New Jersey Blood Center using B cell isolation kits from StemCell Technologies. IKZF family proteins were quantified using the automated capillary-based SimpleWestern System Sally (ProteinSimple). 100 ng of cell lysate protein or serial dilutions of recombinant proteins were mixed in reducing buffer with fluorescent Molecular Weight (MW) standards. After these samples were heated to 95° C. for 5 min, samples were loaded into each capillary tubes and proteins were separated based on MW sizes through stacking and separation matrices for 40 minutes at 250 Volts. Proteins were then immobilized to capillary walls using optimal photoactivated capture chemistry. Following protein immobilization, capillaries were incubated with a blocking reagent for 23 min and target proteins were probed with a specific primary antibody and horseradish peroxidase-conjugated anti-rabbit secondary antibody (ProteinSimple). A mixture of luminol and peroxide (ProteinSimple) was added, the resulting chemiluminescent signal was captured by a CCD camera, and the signal intensities were quantified and analyzed using Compass Software for Sally (ProteinSimple). The Ikaros family proteins in each sample were then calculated based on standard curve of human recombinant proteins. B-Actin was also used as an internal normalization control.

Aiolos [2] = experiment: SimpleWestern of normal human CD19+ B cells, Aiolos; type: cell-based; details: various concentrations
Experimental: as §1

Aiolos [3] = experiment: Endogenous Aiolos in breast cancer cells, western blot; type: cell-based
Experimental: Cell lines (AU565, ZR 75-1, BT-474, EFM-192A, HCC1954, HCC70, MB436 and BT549) were maintained using standard cell culture techniques. For endogenous Aiolos expression, cells were seeded in a 6 well plate at 0.5×10^6 cells per well in a 3 mL volume of media. Cells were allowed to adhere to the plate overnight. Cells were exposed to 0, 1, and 10 μM Compound A for the specified amounts of time.
Cells were harvested and lysed in Pierce #89900 Ripa buffer containing 2× protease inhibitor cocktail from Pierce #78442. The lysate was applied to a QiaShredder to remove DNA. Total protein yield was measured using BioRad DC protein determination kit (Cat#500-0112). Lysates were stored at −80° C. until use. Samples were applied to BioRad Criterion PreCast gels, 10% (Bio-Rad#345-0010) and transferred to Bio-Rad Nitrocellulose/Filter Paper Sandwiches (#162-0233) for western blot analysis.

Aiolos [4] = experiment: Aiolos immunohistochemistry in OCI-LY10 xenograft lymphoma; type: in vivo, mice
Experimental: Xenografts from lymphoma OCI-LY10 cells were used for the following experiments. Immunohistochemistry was performed on the Bond-Max automated slide stainer (Leica Microsystems) using the associated Bond Polymer Refine Detection Kit. Four micron thick FFPE sections were deparaffinized on the instrument. Antigen retrieval was performed with Epitope Retrieval 2 (pH 9.0) for 20 minutes at 100° C. The slides were blocked for endogenous peroxidase activity with Peroxide Block for 5 minutes at room temperature. […] Enzymatic detection of anti-Aiolos antibody was accomplished with hydrogen peroxide substrate and diaminobenzidine tetrahydrochloride (DAB) chromogen at room temperature for 10 minutes. Slides were counterstained with Hematoxylin for 5 minutes at room temperature.

Nc1cccc2c1CN(C1CCC(=O)NC1=O)C2=O (stereo not drawn) [lenalidomide]
Tumor growth (human tumor xenograft): delayed tumor growth

Nc1cccc2c1C(=O)N(C1CCC(=O)NC1=O)C2=O (stereo not drawn) [pomalidomide, reference compound]
Effect in reducing or inhibiting the expression of Aiolos where CRBN is knocked-down (Aiolos [1]): significantly reduced as compared to the control cells with no CRBN knock-down

O=C1CC[C@H](N2Cc3c(OCc4ccc(CN5CCOCC5)cc4)cccc3C2=O)C(=O)N1 [Compound B, 3-(4-((4-(morpholinomethyl)benzyl)oxy)-1-oxoisoindolin-2-yl)piperidine-2,6-dione]
Pegasus expression (Pegasus): without affecting Helios, Pegasus, or β-Actin
Aiolos expression (Aiolos [2]): inhibited the expression of Ikaros and Aiolos

Cc1nc2cccc(N)c2c(=O)n1C1CCC(=O)NC1=O (stereo not drawn) [Compound A, 3-(5-amino-2-methyl-4-oxo-4H-quinazolin-3-yl)-piperidine-2,6-dione]
Endogenous Aiolos (Aiolos [3]; Her2+ cells (AU565, BT-474, EFM-192A and HCC1954)): inhibited
Levels of endogenous Aiolos (band around 60 kD) (Aiolos [3]; ZR 75-1 and AU565 cell lines, 24 hours after treatment): reduced the levels of Aiolos
Endogenous Aiolos (Aiolos [3]; triple negative cells (HCC70, MB436 and BT549)): not in triple negative cells
Approximate Aiolos levels in compound treated tumors (rank order) (Aiolos [4]; all lower than vehicle or vincristine treated tumors): S-isomer of Compound A<Compound A<R-isomer of Compound A<lenalidomide
Aiolos expression in lymphoma cells (Aiolos [4]; immunohistochemistry): inhibited the expression of Aiolos
